Experimental data: article PMC4657038, “Large-Scale Computational Screening Identifies First in Class Multitarget Inhibitor of EGFR Kinase and BRD4” (Scientific Reports, 2015)
Several values for one entry are separate records, joined by “and”; a condition that tells them apart may be missing. Equal values may be shown once. Read-outs that look alike come from different tables or passages of the source.

Key:
BRD4(1) [1] = target: T1, BRD4(1) (Homo sapiens, UniProt O60885); test: BRD4(1) biochemical alphascreen assay (disruption of BRD4(1) binding to acetylated biotin-histone 4 peptide); design: BRD4-BD1 (49–170, BPS Bio #31042) was stored at −80 °C; purchased BPS Bio 31042; details: for IC50: alpha screen, average, 9 concentrations in triplicate (n = 3), read-out: IC50 against BRD4(1)
Excerpt: After searching multiple commercial providers for the top 108 compounds, Enamine LLC (http://www.enamine.net/) provided 24 compounds comprising 5 chemical scaffolds including substituted 2-pyrrolidinones, quinazolin-4-amines, thienopyrimidin-4-amines, and imidazolidinones (Supplementary Table 2). […] As illustrated, several compounds have confirmed activity against BRD4(1) and one compound, Z118332870 (2870), is active against BRD4 and EGFR kinase. Compounds that were not confirmed BRD4(1) actives were not tested in the EGFR assay because we were primarily interested in novel dual BRD4 and EGFR inhibitors. To evaluate small molecule BRD4 bromodomain binding, we utilized a biochemical alphascreen assay that measured disruption of BRD4(1) binding to pre-acetylated biotin-histone 4 peptide by proximity detection of the conjugated donor and acceptor beads via transient singlet oxygen. […] To validate results, a counter-screen assay (see Methods for details) was performed to ensure that compounds were not interacting with assay components other than recombinant BRD4(1) (Supplementary Figure 3).
The BRD4(1) alpha screen assay was performed with a pre-acetylated Biotin-Histone 4 Peptide [H4K5/8/12/16(Ac)] 1 – 21 (AnaSpec #64989-025, 0.25 mg). A 200 μM stock was made and stored at −80 °C. BRD4-BD1 (49–170, BPS Bio #31042) was stored at −80 °C at a concentration of 50 μM. All compounds used in assays were kept in a 10 mM stock at −80 °C, with I-BET151 being used as a control. The assay buffer contained 50 mM HEPES, 100 mM NaCl, and 0.1% BSA at a pH of 7.4, and was stored at 4 °C. 10% CHAPS (Sigma C3023) was added to the assay buffer before each experiment and was stored at room temperature.
Before use, assay buffer was equilibrated to room temperature and supplemented with 0.05% CHAPS. 3X His-BRD4-BD1 was diluted in assay buffer to 600 nM with a final concentration of 200 nM in a 12 μl reaction volume. 4 μl per well of 3X His-BRD4-BD1 was added to an OptiPlate-384 (Perkin Elmer #6007290) covered with Top Seal-A Film (Perkin Elmer #6005250) and pulsed at 900 × g. 3X BRD Inhibitors or DMSO vehicle was prepared in Assay Buffer starting at 300 μM and diluting 3X to 46 nM. 4 μl of buffer (positive control), 3X DMSO Vehicle, or 3X BRD Inhibitor (I-BET151 as control) were added to each well, sealed with Top Seal-A film and pulsed at 900 × g. The plate was then incubated at room temperature for 30 minutes. 3X Biotin-H4K4Ac was prepared by diluting stock in Assay Buffer to 600 nM, with a final concentration of 200 nM in a 12 μl reaction volume. 4 μl of Biotin-H4K4Ac was added per well, sealed and pulsed at 900 × g. The plate was then incubated at room temperature for another 30 minutes. AlphaLISA Nickel Chelate Acceptor Beads (Perkin Elmer #1547780, 5 mg/ml, 4 °C) and AlphaScreen Streptavidin Donor Beads (Perkin Elmer #6760002, 5 mg/ml, 4 °C) were prepared at 2.5X by diluting in Assay Buffer to 25 μg/ml with a final concentration of each bead equaling 10 μg/ml in a 20 μl reaction volume. 8 μl per well of Donor and Acceptor beads were added in the dark to each well, sealed, wrapped with foil to protect from light, and pulsed at 900 × g. The plate was then incubated at room temperature for 60 minutes and read on an EnVision instrument using Alpha Mode (680 excitiation/615 emission/read signal). Dose response curves were obtained and interpreted using GraphPad Prism software for curve fitting to obtain IC50 values. […]

EGFR (ERBB1) = EGFR (ERBB1) (Homo sapiens, UniProt P00533); test: EGFR kinase activity enzyme assay (radioisotope filter binding, hotspot); format: biochemical
Procedure: A radioisotope filter binding method was used in the EGFR kinase hotspot assay, performed by the Reaction Biology Corporation, LLC. The base reaction buffer was composed of 20 mM HEPES (pH 7.5); 10 mM MgCl2, 1 mM EGTA, 0.02% Brij35, 0.02 mg/mL BSA, 0.1 mM Na3VO4, 2 mM DTT, and 1% DMSO. The substrate was freshly prepared using the base reaction buffer. Kinase was added into the substrate solution at a concentration of 10 μM and gently mixed. Compounds were then added into the kinase reaction mixture. At this point, the ^33P-ATP was added into the reaction mixture to initiate the reaction. The reaction was incubated for 120 minutes at room temperature. After completion, reactions were spotted onto P81 ion exchange paper (Whatman #3698-915). Filters were then washed extensively in 0.75% Phosphoric acid and a scintillation counter was used to quantify the amount of radioactivity on the filter.

ERBB2 = ERBB2 (Homo sapiens, UniProt P04626); test: Kinase activity enzyme profiling, ERBB2; format: biochemical
ERBB4 = ERBB4 (Homo sapiens, UniProt Q15303); test: Kinase activity enzyme profiling, ERBB4; format: biochemical
BRD4(1) [2] = target: T1, BRD4(1); test: Differential scanning fluorimetry (DSF) with BRD4(1); format: binding; design: Bromodomain 1 (BRD4(1)) and Bromodomain 2 (BRD4(2))
Procedure: The inhibitory activity of compound Z118332870 (2870) against BRD4(1) was assessed by DSF using a StepOnePlus Real-Time PCR system (Applied Biosystems). Purified BRD4(1) (4 μM final concentration; 10 mM HEPES (pH 7.5), 100 mM NaCl, and 1 mM DTT) was assayed, in triplicates, in a 96-well plate. Compound was added to a final concentration of 100 μM and 2% DMSO. Protein Thermal Shift Dye (1:8000; Applied Biosystems) was used as the fluorescent probe and fluorescence was measured using the ROX Reporter channel (620 nm). Protein stability was investigated by programing the thermocycler to increase the temperature from 25 °C to 99 °C using 0.2 °C increments and 10 second incubations per increment. The inflection point of the transition curve/melting temperature (Tm) was calculated using the Boltzmann equation within the Protein Thermal Shift Software (v.1.1) (Applied Biosystems). The ΔTm was calculated by using DMSO control wells as a reference.

Sequence of ERBB2 (P04626 23-1255): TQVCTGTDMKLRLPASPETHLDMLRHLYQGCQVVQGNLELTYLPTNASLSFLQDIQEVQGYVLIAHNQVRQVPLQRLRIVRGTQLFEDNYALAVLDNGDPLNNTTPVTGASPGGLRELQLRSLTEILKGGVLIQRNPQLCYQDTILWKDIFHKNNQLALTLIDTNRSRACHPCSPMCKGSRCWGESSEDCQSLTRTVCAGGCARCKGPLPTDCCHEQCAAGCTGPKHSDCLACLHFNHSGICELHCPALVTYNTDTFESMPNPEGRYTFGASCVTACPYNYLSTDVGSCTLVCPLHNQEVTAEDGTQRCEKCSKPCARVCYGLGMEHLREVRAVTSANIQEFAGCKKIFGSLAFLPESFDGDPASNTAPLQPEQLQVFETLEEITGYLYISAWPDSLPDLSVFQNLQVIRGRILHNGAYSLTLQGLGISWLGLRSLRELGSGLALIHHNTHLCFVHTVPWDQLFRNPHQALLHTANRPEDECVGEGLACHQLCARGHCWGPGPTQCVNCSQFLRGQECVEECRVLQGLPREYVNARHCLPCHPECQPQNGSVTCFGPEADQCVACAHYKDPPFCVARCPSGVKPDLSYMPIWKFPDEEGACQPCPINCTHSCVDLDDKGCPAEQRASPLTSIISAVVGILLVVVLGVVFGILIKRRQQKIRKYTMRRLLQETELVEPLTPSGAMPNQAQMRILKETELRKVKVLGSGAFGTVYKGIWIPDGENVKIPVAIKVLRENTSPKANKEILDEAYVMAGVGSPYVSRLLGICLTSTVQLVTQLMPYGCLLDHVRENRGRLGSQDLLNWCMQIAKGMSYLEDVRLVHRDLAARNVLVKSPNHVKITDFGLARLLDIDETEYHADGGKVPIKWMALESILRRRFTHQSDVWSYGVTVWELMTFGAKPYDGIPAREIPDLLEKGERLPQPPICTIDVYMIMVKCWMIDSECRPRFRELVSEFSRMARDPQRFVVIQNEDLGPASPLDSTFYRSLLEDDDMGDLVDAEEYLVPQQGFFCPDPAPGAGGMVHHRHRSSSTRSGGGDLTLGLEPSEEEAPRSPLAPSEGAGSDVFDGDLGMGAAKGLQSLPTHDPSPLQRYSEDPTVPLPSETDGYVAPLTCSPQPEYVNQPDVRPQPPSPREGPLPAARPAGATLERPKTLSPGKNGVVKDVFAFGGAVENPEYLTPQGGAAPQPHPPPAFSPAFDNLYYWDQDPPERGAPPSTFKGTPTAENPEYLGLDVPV
Sequence of ERBB4 (Q15303 26-1308): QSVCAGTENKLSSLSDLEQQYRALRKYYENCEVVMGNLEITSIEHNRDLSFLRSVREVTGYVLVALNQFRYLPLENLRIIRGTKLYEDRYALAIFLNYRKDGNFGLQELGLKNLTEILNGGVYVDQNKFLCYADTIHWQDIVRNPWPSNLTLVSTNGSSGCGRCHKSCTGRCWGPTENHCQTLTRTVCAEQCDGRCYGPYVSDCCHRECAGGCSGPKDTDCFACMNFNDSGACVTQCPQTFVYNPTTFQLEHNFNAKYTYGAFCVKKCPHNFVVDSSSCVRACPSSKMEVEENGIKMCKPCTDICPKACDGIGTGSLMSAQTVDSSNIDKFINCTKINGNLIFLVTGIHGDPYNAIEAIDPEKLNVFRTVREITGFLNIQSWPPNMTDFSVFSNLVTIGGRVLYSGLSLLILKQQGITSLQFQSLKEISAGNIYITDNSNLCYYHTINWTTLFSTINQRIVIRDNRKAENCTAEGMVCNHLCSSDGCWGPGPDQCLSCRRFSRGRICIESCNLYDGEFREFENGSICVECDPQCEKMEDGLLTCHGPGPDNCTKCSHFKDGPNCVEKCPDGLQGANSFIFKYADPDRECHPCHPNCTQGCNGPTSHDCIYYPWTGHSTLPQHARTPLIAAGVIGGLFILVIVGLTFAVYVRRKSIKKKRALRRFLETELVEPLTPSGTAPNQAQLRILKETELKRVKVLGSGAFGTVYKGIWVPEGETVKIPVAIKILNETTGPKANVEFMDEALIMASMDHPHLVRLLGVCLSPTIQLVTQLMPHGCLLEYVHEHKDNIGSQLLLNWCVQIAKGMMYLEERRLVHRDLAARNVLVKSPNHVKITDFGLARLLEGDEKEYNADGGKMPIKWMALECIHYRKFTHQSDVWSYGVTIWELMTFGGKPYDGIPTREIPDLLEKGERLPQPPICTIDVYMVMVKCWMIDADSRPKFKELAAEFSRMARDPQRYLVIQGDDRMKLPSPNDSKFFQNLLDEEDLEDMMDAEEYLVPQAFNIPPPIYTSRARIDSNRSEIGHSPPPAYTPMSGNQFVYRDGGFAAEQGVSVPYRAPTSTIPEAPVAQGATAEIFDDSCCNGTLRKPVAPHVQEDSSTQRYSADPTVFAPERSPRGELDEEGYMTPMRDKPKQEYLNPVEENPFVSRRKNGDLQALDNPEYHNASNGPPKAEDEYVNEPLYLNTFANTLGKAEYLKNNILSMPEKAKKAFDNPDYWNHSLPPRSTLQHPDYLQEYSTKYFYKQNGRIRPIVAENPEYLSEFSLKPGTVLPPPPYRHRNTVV
Sequence of EGFR (ERBB1) (P00533 25-1210): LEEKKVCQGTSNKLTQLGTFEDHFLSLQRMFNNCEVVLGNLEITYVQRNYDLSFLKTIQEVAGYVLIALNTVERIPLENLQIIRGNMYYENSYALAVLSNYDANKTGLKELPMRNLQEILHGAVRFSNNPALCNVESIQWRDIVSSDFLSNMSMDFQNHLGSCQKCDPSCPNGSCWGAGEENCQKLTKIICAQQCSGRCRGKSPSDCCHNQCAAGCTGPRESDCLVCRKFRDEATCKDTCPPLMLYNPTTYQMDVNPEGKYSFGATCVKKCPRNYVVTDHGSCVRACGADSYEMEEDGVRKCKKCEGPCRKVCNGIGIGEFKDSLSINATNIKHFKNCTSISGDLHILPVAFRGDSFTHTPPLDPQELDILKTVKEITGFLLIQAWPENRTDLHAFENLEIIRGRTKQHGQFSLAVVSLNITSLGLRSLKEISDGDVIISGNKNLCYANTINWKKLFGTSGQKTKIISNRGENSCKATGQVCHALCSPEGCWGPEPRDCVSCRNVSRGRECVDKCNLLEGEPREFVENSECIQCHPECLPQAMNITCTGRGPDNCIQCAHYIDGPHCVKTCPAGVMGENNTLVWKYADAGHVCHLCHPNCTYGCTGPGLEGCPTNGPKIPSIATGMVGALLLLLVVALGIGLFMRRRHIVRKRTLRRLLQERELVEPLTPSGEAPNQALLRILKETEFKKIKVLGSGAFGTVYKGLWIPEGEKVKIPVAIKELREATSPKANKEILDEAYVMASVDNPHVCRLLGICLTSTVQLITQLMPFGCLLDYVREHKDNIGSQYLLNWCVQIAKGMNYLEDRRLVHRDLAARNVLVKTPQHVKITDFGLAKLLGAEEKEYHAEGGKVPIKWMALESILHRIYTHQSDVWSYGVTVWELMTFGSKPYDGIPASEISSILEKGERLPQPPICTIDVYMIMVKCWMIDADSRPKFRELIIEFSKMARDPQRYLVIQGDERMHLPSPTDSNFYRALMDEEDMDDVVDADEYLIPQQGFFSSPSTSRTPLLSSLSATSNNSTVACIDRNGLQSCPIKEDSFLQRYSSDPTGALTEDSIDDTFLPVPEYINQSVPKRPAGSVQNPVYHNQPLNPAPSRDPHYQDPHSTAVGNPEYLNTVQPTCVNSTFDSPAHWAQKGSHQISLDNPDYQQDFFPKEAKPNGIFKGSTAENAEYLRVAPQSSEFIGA

| SMILES | activity in BRD4(1) alphascreen assay (in words) (BRD4(1) [1]) | IC50 (BRD4(1) [1]) | IC50 (EGFR (ERBB1); kinase enzyme activity assay, read-out: IC50 against EGFR) [µM] | IC50 (EGFR (ERBB1); radioisotope filter binding assay, substrate concentration 10 μM, n = 3, read-out: IC50 against EGFR kinase) [µM] | selectivity for EGFR over ERBB2 (ERBB2; EGFR vs ERBB2 IC50) | IC50 (ERBB2; kinase activity enzyme profiling, read-out: IC50 against ERBB2) [µM] | selectivity for EGFR over ERBB4 (ERBB4; EGFR vs ERBB4 IC50) [fold] | IC50 (ERBB4; kinase activity enzyme profiling, read-out: IC50 against ERBB4) [µM] | ΔTm at 100 µM (BRD4(1) [2]; DSF, compound 100 μM, BRD4(1) 4 μM, relative to DMSO) [°C] | IC50 (BRD4(1) [2]; corresponds to ΔTm based on the standard curve, read-out: predicted IC50 from DSF standard curve) [µM] |
| --- | --- | --- | --- | --- | --- | --- | --- | --- | --- | --- |
| c1nc(NCCCN2CCOCC2)c2c3c(sc2n1)CCC3 [compound 0012] | Confirmed active | 17 µM | – | – | – | – | – | – | – | – |
| COc1cc2ncnc(NCCOc3ccccc3F)c2cc1OC [compound 2870] | Confirmed active | 9 µM and 9.02 µM | 0.0442 | 0.044 | about 200 fold | 8.73 | 500 | 24.2 | 1.15 | 9.1 |
| COc1ccc(Br)cc1S(=O)(=O)Nc1cccc(N2CCCC2=O)c1 [compound 8302] | Confirmed active | – | – | – | – | – | – | – | – | – |
